Experimental data published in patent US20240209014A1, “NOVEL SPINOSYN PRODRUGS” (Acies Bio d.o.o., priority 2021, published 2024).
Like-named read-outs stand apart in the source and are kept apart here.

Experiments:
[1] = Stability of J1A, J1B and J7 at different pH values (LC-MS); assay type: physicochemical
Procedure: Stability of compounds J1A, J1B and J7 was evaluated at different pH values. Differential stability/conversion to the active ingredient is expected to result in condition-specific activation and thereby to higher specificity towards target pests.
(§1) Stock solutions of the compounds were prepared at concentration of 0.1 mol/L. 10 μL of the stock solutions were transferred to 0.75 ml of the buffer solutions with pH values of 4, 5, 9 and 11. The resulting solutions were incubated for 10 minutes and 3 and 24 h. After specified times samples were analyzed using LC-MS. The compounds J1A, J1B, J7 and the active compound butenyl spinosyn were quantified. It is seen that the three compounds are converted to the active form preferably in alkaline conditions.

[2] = system: honey bees (Apis melifera carnica, Pollman 1879); assay: Single dose acute oral toxicity test on adult worker honey bees; assay type: in vivo
Procedure: Toxicity of the compounds of this invention towards honey bees (Apis melifera carnica, Pollman 1879) was assessed in comparison with commercially available samples of spinosad (LGC (Dr. Ehrenstorfer); Product code: DRE-C16972830) and the naturally produced compound butenyl spinosyn alpha 1. Solutions of spinosyn compounds were prepared in 100 mM ammonium acetate, pH=5, and later diluted in 50% (500 g/L) sucrose solution in water to final concentrations. Two final concentrations were used for each compound, 7.76 μmol/L and 15.53 μmol/L.
Single dose acute oral toxicity tests were conducted on adult worker bees according to previously described standard methods (Medrzycki at el., (2013)). Each compound and condition were tested in two parallels. Briefly, each parallel experiment consisted of 5 cages with 20 honey bees per cage. […] After uptake of the solutions honey bees were supplied with standard 50% sucrose solution and observed at 24 h and 48 h and the number of dead and live bees was estimated.
Ammonium acetate solution with pH 5 was used as the negative control.

[3] = system: larvae of Ostrinia nubilialis (development stage L1); assay: Insecticide efficacy, corn leaf dip, Henderson-Tilton method; assay type: in vivo; details: for % efficacy (Henderson-Tilton): Ostrinia, foliar
Procedure: Insecticide activities of the compounds of this invention were assessed in comparison with commercially available samples of spinosad (LGC (Dr. Ehrenstorfer); Product code: DRE-C16972830) and spinetoram (LGC (Dr. Ehrenstorfer); Product code: DRE-C16972770). Solutions of spinosyn compounds were prepared by adding 0.05% Tween 80, lowering pH to 5.95 and sonicating. Two concentrations of each compound were used, 0.1 μg/ml and 0.3 μg/mL, with each condition tested in four parallels.
Freshly collected corn leaves were dipped into the prepared solutions. After dipping leaves were left to dry at room temperature for 1 hour. Each dry leaf was then infested with 4 larvae of Ostrinia nubilialis (development stage L1), and the experimental device was incubated at 21° C.-23° C. for 24 h in order to optimize insect development. At three timings post infestation (1 day, 3 days and 6 days), the insecticide efficacy is evaluated from the number of living larvae using the Henderson-Tilton method. Untreated control was integrated for normalization and validation of larvae health.

[4] = Kinetic solubility assay; assay type: physicochemical; details: 25 °C, kinetic from dmso stock, dose conc 200 μM, 25±2° C.
Procedure: Solubility of the compounds of the invention was assessed using kinetic solubility assay and compared to solubility of butenyl spinosyn. Stock solutions of spinosyn compounds were prepared in DMSO at mM concentration). 10 uL of the stock solutions were added into 490 of in K.S. 5.4 buffer of pH 5.4 (80 mM phosphoric acid, acetic acid, boric acid buffer, adjusted the pH to pH 5.4 with 1 N HCl and 1N NaOH) or K.S. 7.4 buffer with pH of 7.4 (80 mM phosphoric acid, acetic acid, boric acid buffer, adjusted the pH to pH 7.4 with 1 N HCl and 1N NaOH). The solutions were incubated with shaking at room […] temperature (25±2° C.) for 24 hours. 200 uL of each solution were then transferred into a new MultiScreen filter plate (Membrane of polycarbonate) and filtered by millipore vacuum manifold, and the filtrate was collected. The concentrtions of tested compounds in the filtered samples were analyzed by HPLC analysis calibrated by a standard curve generated by injection of 3 standard solutions of the relevant compound with concentrations of 1, 20, 200 μM.

[5] = Stability of J1Aa and J7a at different pH values (LC-MS); assay type: physicochemical
Procedure: Stability of compounds J1Aa and J7a was evaluated at different pH values. Differential stability/conversion to the active ingredient is expected to result in condition-specific activation and thereby to higher specificity towards target pests.
as §1, with “The resulting solutions were incubated for 10 minutes and 3 and 24 h.” left out, “J1Aa and J7a” for “J1A, J1B, J7”, “compound” for “compound butenyl”, “spinosyn A” for “spinosyn”, “two” for “three”

[6] = single oral dose 0.078 nmol/bee, 24 h after application
[7] = single oral dose 0.078 nmol/bee, 48 h after application
[8] = single oral dose 0.155 nmol/bee, 24 h after application
[9] = single oral dose 0.155 nmol/bee, 48 h after application

SMILES: CC/C=C/[C@H]1CCC[C@H](OC2CCC([N+](C)(C)COC(=O)C(C)(C)C)C(C)O2)[C@@H](C)C(=O)C2=C[C@@H]3[C@@H](C=C[C@@H]4C[C@@H](OC5OC(C)C(OC)C(OC)C5OC)C[C@@H]34)[C@@H]2CC(=O)O1 (stereo partly shown) [Compound J1A]
- BuSPN Area % (active butenyl spinosyn released) ([1]; buffer pH 4, 0.16 h): 0.0%
- Compound (J1A/J1B/J7) Area % remaining ([1]; buffer pH 4, 0.16 h): 5.7%
- BuSPN Area % (active butenyl spinosyn released) ([1]; buffer pH 4, 3 h): 0.0%
- Compound (J1A/J1B/J7) Area % remaining ([1]; buffer pH 4, 3 h): 2.0%
- BuSPN Area % (active butenyl spinosyn released) ([1]; buffer pH 4, 24 h): 0.0%
- Compound (J1A/J1B/J7) Area % remaining ([1]; buffer pH 4, 24 h): 0.1%
- BuSPN Area % (active butenyl spinosyn released) ([1]; buffer pH 5, 0.16 h): 0.1%
- Compound (J1A/J1B/J7) Area % remaining ([1]; buffer pH 5, 0.16 h): 99.4%
- BuSPN Area % (active butenyl spinosyn released) ([1]; buffer pH 5, 3 h): 0.1%
- Compound (J1A/J1B/J7) Area % remaining ([1]; buffer pH 5, 3 h): 99.3%
- BuSPN Area % (active butenyl spinosyn released) ([1]; buffer pH 5, 24 h): 1.7%
- Compound (J1A/J1B/J7) Area % remaining ([1]; buffer pH 5, 24 h): 97.4%
- BuSPN Area % (active butenyl spinosyn released) ([1]; buffer pH 9, 0.16 h): 32.6%
- Compound (J1A/J1B/J7) Area % remaining ([1]; buffer pH 9, 0.16 h): 66.4%
- BuSPN Area % (active butenyl spinosyn released) ([1]; buffer pH 9, 3 h): 71.8%
- Compound (J1A/J1B/J7) Area % remaining ([1]; buffer pH 9, 3 h): 26.6%
- BuSPN Area % (active butenyl spinosyn released) ([1]; buffer pH 9, 24 h): 46.6%
- Compound (J1A/J1B/J7) Area % remaining ([1]; buffer pH 9, 24 h): 0.0%
- BuSPN Area % (active butenyl spinosyn released) ([1]; buffer pH 11, 0.16 h): 80.7%
- Compound (J1A/J1B/J7) Area % remaining ([1]; buffer pH 11, 0.16 h): 18.4%
- BuSPN Area % (active butenyl spinosyn released) ([1]; buffer pH 11, 3 h): 98.0%
- Compound (J1A/J1B/J7) Area % remaining ([1]; buffer pH 11, 3 h): 0.5%
- % of surviving honey bees [2, 6]: 95%
- % of surviving honey bees [2, 7]: 92%
- % of surviving honey bees [2, 8]: 89%
- % of surviving honey bees [2, 9]: 75%
- insecticidal activity on Ostrinia nubilialis larvae (in words) ([3]; 0.1 and 0.3 μg/mL, leaf dip): extremely potent insecticidal activity
- % efficacy (Henderson-Tilton) ([3]; 24 h, read-out: % Efficacy, dose 0.1 μg a.i./ml, 1 day post infestation): 2%
- % efficacy (Henderson-Tilton) ([3]; 24 h, read-out: % Efficacy, dose 0.3 μg a.i./ml, 1 day post infestation): 0%
- % efficacy (Henderson-Tilton) ([3]; 72 h, read-out: % Efficacy, dose 0.1 μg a.i./ml, 3 days post infestation): 44%
- % efficacy (Henderson-Tilton) ([3]; 72 h, read-out: % Efficacy, dose 0.3 μg a.i./ml, 3 days post infestation): 63%
- % efficacy (Henderson-Tilton) ([3]; 144 h, read-out: % Efficacy, dose 0.1 μg a.i./ml, 6 days post infestation): 89%
- % efficacy (Henderson-Tilton) ([3]; 144 h, read-out: % Efficacy, dose 0.3 μg a.i./ml, 6 days post infestation): 100%
- solubility kinetic at 24 h ([4]; pH 5.4, aqueous buffer, K.S. 5.4 buffer, read-out: Kinetic Solubility pH = 5.4): 189 µM
- solubility kinetic at 24 h ([4]; pH 7.4, aqueous buffer, K.S. 7.4 buffer, read-out: Kinetic Solubility pH = 7.4): 143 µM

SMILES: CC[C@H]1CCC[C@H](OC2CCC([N+](C)(C)COC(=O)OC(C)C)C(C)O2)[C@@H](C)C(=O)C2=C[C@@H]3[C@@H](C=C[C@@H]4C[C@@H](OC5OC(C)C(OC)C(OC)C5OC)C[C@@H]34)[C@@H]2CC(=O)O1 (stereo partly shown) [Compound J7a]
- Compound (J1Aa/J7a) Area % remaining ([5]; buffer pH 4, 0.16 h): 92.1%
- SPN Area % (active spinosyn A released) ([5]; buffer pH 4, 0.16 h): 7.9%
- Compound (J1Aa/J7a) Area % remaining ([5]; buffer pH 4, 6 h): 91.6%
- SPN Area % (active spinosyn A released) ([5]; buffer pH 4, 6 h): 8.4%
- Compound (J1Aa/J7a) Area % remaining ([5]; buffer pH 4, 12 h): 91.3%
- SPN Area % (active spinosyn A released) ([5]; buffer pH 4, 12 h): 8.7%
- Compound (J1Aa/J7a) Area % remaining ([5]; buffer pH 4, 24 h): 90.7%
- SPN Area % (active spinosyn A released) ([5]; buffer pH 4, 24 h): 9.3%
- Compound (J1Aa/J7a) Area % remaining ([5]; buffer pH 5, 0.16 h): 91.8%
- SPN Area % (active spinosyn A released) ([5]; buffer pH 5, 0.16 h): 8.2%
- Compound (J1Aa/J7a) Area % remaining ([5]; buffer pH 5, 6 h): 90.9%
- SPN Area % (active spinosyn A released) ([5]; buffer pH 5, 6 h): 9.1%
- Compound (J1Aa/J7a) Area % remaining ([5]; buffer pH 5, 12 h): 90.3%
- SPN Area % (active spinosyn A released) ([5]; buffer pH 5, 12 h): 9.7%
- Compound (J1Aa/J7a) Area % remaining ([5]; buffer pH 5, 24 h): 89.0%
- SPN Area % (active spinosyn A released) ([5]; buffer pH 5, 24 h): 11.0%
- Compound (J1Aa/J7a) Area % remaining ([5]; buffer pH 9, 0.16 h): 44.4%
- SPN Area % (active spinosyn A released) ([5]; buffer pH 9, 0.16 h): 55.6%
- Compound (J1Aa/J7a) Area % remaining ([5]; buffer pH 9, 6 h): 0.0%
- SPN Area % (active spinosyn A released) ([5]; buffer pH 9, 6 h): 100.0%
- Compound (J1Aa/J7a) Area % remaining ([5]; buffer pH 11, 0.16 h): 0.1%
- SPN Area % (active spinosyn A released) ([5]; buffer pH 11, 0.16 h): 99.9%
- % of surviving honey bees [2, 6]: 96%
- % of surviving honey bees [2, 7]: 88%
- % of surviving honey bees [2, 8]: 97%
- % of surviving honey bees [2, 9]: 68%
